In patent US20190290641A1, “5-HYDROXYTRYPTAMINE 1B RECEPTOR-STIMULATING AGENT FOR SKIN AND/OR HAIR REPAIR” (INSTITUT PASTEUR, priority 2016, published 2019):

Columns and labels:
[1] = tested on: 8 mm biopsy wound of the skin in C57Bl/6 mice; experiment: Wound healing after 8 mm skin biopsy, per os treatment, macroscopic wound size; format: in vivo; settings: for wound in average smaller than placebo: between the 4th and the 14th day post-injury; for size of the wound vs placebo in the course of wound closure: until 16 days post injury
Protocol: (§1) All procedures in this study were approved by the Animal Care and Use committee at the Institut Pasteur (CETEA 2016-0007). Unless specified, 6 weeks old male mice C57Bl/6Rj were used in this study and housed on a 12:12 light/dark cycle in a pathogen free facility with controlled temperature and humidity. Food and drink were given ad libitum. Fluoxetine was dissolved in 0.9% NaCl and delivered either by intra peritoneal injections or per os at 18 mg/Kg. Control group received daily injections of 0.9% NaCl. For vortioxetine mice also received the product either dissolved in 96% Ethanol and then diluted 1/200 in water ad libitum at 20 mg/kg or dissolved in 96% Ethanol and then diluted 1/200 in 0.9% NaCl, final concentration 20 mg/kg body weight corrected. For topical applications vortioxetine was dissolved in 0.9% Nacl and directly applied in the wound the 3 first days and then on top on the wound the following days, every day.
(§2) Mice were anesthetized using Isoflurane, initially in an induction chamber. The anaesthetised mice were transferred to the anaesthetic nose-cone and maintained on a heated block throughout the procedure (typically for about 5 minutes). Analgesic was administered by subcutaneous injection e.g. buprenorphine 1.5 μl of […] solution, diluted in 30 μl sterile water. The area of the biopsy was shaved. Then an area of dorsal skin was rendered sterile by swabbing with Videne surgical scrub followed by sterile water. A 8 mm sterile punch biopsy was used to create an incision through the epidermis/dermis to the muscle fascia. Any bleeding at this step was carefully avoided. The punch biopsy was removed and the skin separated from muscle connective tissues using forceps or blunted scissors. Mice were then removed from the anesthetic nose-cone and housed in sterilised cages containing paper liner and paper bedding. They were kept warm (using a cage placed on a heated mat) until fully recovered from the effects of the anaesthetic.
In order to assess the regenerative potential of the skin, a 8 mm biopsy of the skin was performed in C57Bl/6 mice, which were either treated per os with fluoxetine at 18 mg/kg or with vortioxetine at 20 mg/kg for 6 weeks and 12 days respectively (FIG. 1A) and during the healing process.

[2] = tested on: 8 mm biopsy wound of the skin in C57Bl/6 mice; experiment: Wound healing after 8 mm skin biopsy, topical application without pre-treatment; format: in vivo
Protocol: as §1, §2
To further confirm the data, the same protocol was performed on C57Bl/6 mice wounded with 8 mm biopsy, but this time the mice were not pre-treated and received topical (300 μl) applications of vortioxetine at a concentration of 20 mg/ml diluted in 96% ethanol. The placebo received the same amount of 96% ethanol. […] Six days post injury, the size of the wound was smaller in the animals topically treated with vortioxetine (FIG. 1L). Eight days post injury, the size of the wound was 10 times lower than the placebo (FIG. 1L).

[3] = tested on: hair growth of shaved mice; experiment: Hair growth after shaving (clippers) or depilation (wax); format: in vivo; settings: for hair regeneration after shaving: 5 and 10 days after shaving; for hair growth, differences between the groups: 24 days after shaving; for growth of hairs in both protocols (clippers, wax): after shaving or depilation
Protocol: 2 different protocols were used to remove the hair from the mice. Mice were anesthetized using Isoflurane, initially in an induction chamber. The anaesthetised mice were transferred to the anaesthetic nose-cone and maintained on a heated block throughout the procedure (typically for about 5 minutes). In protocol 1, shaving was performed by cutting the hair: the mice were gently restrained manually and half of their back was shaved with portable electric hair clippers. In protocol 2, some hair was firstly removed with forceps and wax was used to unstack the hair. The wax was applied twice for maximum efficiency.
The skin color of the mouse skin was measured three times in 5 different locations of the shaved skin randomly and averaged within a 16×16 mm2 field, using ImageJ. The luminance measured reflects the relative darkness ranging from white (0) to black (1 0 0).
In order to study the influence of fluoxetine or vortioxetine on hair growth after a stress 2 different protocols were used on the same mouse. The half right part of the mouse back was shaved by cutting the hair with hairs clippers, and, in parallel, the hairs were removed using wax to unstack the hairs on the left part of the back (FIG. 4G). […] This was still true 10 days after shaving with longer hairs in the treated animals compared with placebo (FIG. 4J,M,N). […] These observations are in favor of a faster growth and faster regeneration but not bigger or longer hairs.

[4] = tested on: 8 mm biopsy wound of the skin in C57Bl/6 mice; experiment: Histological analysis of the wound (H&E, re-epithelization, Ki67 immunostaining); format: in vivo; settings: for cell infiltration in the dermis vs placebo / number of Ki67+ cells (proliferating cells) in the wound vs placebo / open wounded area vs placebo (H&E): 5 days post injury; for number of cycling cells vs placebo: 14 days post injury; for number of vessels: at the time of the biopsy (T0), H&E, per os treatment, placebo 4.8±1.3; for length of the epithelial tongues vs placebo: day 5 after injury; for distances between the tips of the epithelial tongues vs placebo: day 5 after wounding
Protocol: Width of the wound and distance of the traversed epithelium were measured on H&E.
Percent of re-epithelization was calculated according to the following formula: [distance covered by epithelium]/[distance between wound bed]×100.
The extent of epithelialization and granulation tissue formation was determined on H&E-stained paraffin tissue sections. The length of the epithelial tongue was determined as the distance that the neo-epithelium had migrated from the margin of the wound as defined by the presence of hair follicles in non-wounded skin.
Immunostaining was performed on formol fixed sections. Permeabilized with 0.5% Triton X-100 20 min at room temperature, washed, and blocked with 10% BSA for 30 min. Sections were incubated with primary antibodies overnight at 4° C. and with Alexa-conjugated secondary antibodies 1/250 and Hoechst for 45 minutes. Sections were then analysed using an automated axioscan (Zeiss) or inverted Observer.Z1 Apotome (Zeiss).
To further characterize the wound closure, histological analysis was performed at the time of the biopsy (T0), 5 days post injury and 14 days post injury.

[5] = tested on: hair and hair follicle of mice; experiment: Hair and skin measurements after treatment without shaving; format: in vivo; settings: no shaving; for hair size: per os fluoxetine 18 mg/kg 6 weeks, vortioxetine 20 mg/kg 12 days; for hair follicle length / skin thickness: per os
Protocol: as §1
To study the possible effect of fluoxetine and vortioxetine on hair growth, fluoxetine (at 18 mg/kg) or vortioxetine (at 20 mg/kg) was provided per os to mice for 6 weeks and 12 days, respectively. […] However, when the hairs were challenged with shaving or depilation, a faster growth of hairs was observed

hair growth in patients = settings: about 100 patients, cited from earlier work
5HT1 BR = molecular target: T1, 5HT1 BR (Mus musculus, UniProt P28334); experiment: Wound closure with topical 5HT1 BR agonist, with or without 5HT1 BR antagonist; format: in vivo, mice; settings: for size of the wound: 6 days post injury, control 15.09±2.3
T1 construct: from tissue; host or cells: live mice, skin wound (in vivo)
Protocol: Mice were treated with another 5HT1 BR agonist (CP 94253) directly on the wound (topic administration) at a concentration of 0.5 μmol, 12 h after a wound injury.
No pretreatment was performed on this set of experiments and the drug was administered once a day for the totality of the duration of the wound closure. Controls group received PBS topically only, once a day for the total duration of the treatment.

[6] = first 24 hours, per os fluoxetine 18 mg/kg 6 weeks or vortioxetine 20 mg/kg 12 days pre-treatment and during healing
[7] = six days post injury, per os, placebo 15.67
[8] = sixteen days post injury, per os
[9] = sixteen days post injury, per os, placebo 0.5

T1 sequence (P28334 whole entry): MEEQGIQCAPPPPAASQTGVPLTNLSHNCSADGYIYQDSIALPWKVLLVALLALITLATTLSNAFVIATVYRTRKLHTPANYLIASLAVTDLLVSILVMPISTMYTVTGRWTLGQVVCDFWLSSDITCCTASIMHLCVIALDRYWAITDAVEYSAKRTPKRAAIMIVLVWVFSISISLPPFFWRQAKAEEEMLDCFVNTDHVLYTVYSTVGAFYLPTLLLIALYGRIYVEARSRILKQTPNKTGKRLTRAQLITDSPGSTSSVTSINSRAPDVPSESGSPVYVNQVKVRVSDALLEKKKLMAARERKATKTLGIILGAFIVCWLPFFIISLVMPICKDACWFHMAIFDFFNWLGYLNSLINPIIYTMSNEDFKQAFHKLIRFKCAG

Compound	wound in average smaller than placebo [1] [%]	size of the wound vs placebo [1, 6]	size of the wound vs placebo ([1]; four days post injury, per os)	area of the wound [1, 7] [mm^2]	skin regeneration at the macroscopic level [1, 8]	area of the wound [1, 9] [mm^2]	size of the wound vs placebo in the course of wound closure ([1]; per os)	hair regeneration after shaving [3]	hair growth vs placebo ([3]; 5 days after shaving)	hair growth vs placebo ([3]; 10 days after shaving)	hair growth, differences between the groups [3]	growth of hairs in both protocols (clippers, wax) [3]	cell infiltration in the dermis vs placebo [4]	number of Ki67+ cells (proliferating cells) in the wound vs placebo [4]	open wounded area vs placebo (H&E) [4]	number of cycling cells vs placebo [4]	number of vessels [4] [vessels/mm^2]	length of the epithelial tongues vs placebo [4]	distances between the tips of the epithelial tongues vs placebo [4]	hair size [5]	other results
Cc1ccc(Sc2ccccc2N2CCNCC2)c(C)c1 [vortioxetine, 1-[2-(2,4-Dimethylphenylsulfanyl)phenyl]piperazine]	35	No difference	smaller	10.10	virtually completely regenerated	0.05	constantly smaller	more advanced, faster regeneration of the hairs	More advanced hair growth	longer hairs	no differences	faster growth	more cells	higher	smaller	No differences	8.7±3.5	significantly increased	significantly shorter	No differences	sizes of the wounds vs placebo ([2]; T0 to 4 days post injury, topical 300 μl of 20 mg/ml, no pre-treatment): No differences; size of the wound relative to placebo ([2]; eight days post injury, topical): 10 times lower than the placebo; size of the wound vs placebo ([2]; six days post injury, topical): smaller; wound closure ([2]; sixteen days post injury, topical, placebo 0.20 mm^2): virtually completely closed; hair follicle length [5]: No differences; skin thickness [5]: did not change
CCOC(=O)c1ccnc(C(=O)OCC)c1 [stemoxydin]																					new hairs compared to the normal average of 50 to 100 new hairs growing every day (hair growth in patients; 90 days): 4%; average new hairs (hair growth in patients; in 90 days): 1500 new hairs
CNCCC(Oc1ccc(C(F)(F)F)cc1)c1ccccc1 (stereo not drawn) [fluoxetine]	27	No difference	smaller	11.48	virtually completely regenerated	0.05	constantly smaller	more advanced, faster regeneration of the hairs	More advanced hair growth	longer hairs	no differences	faster growth	more cells	higher	smaller	No differences	8.2±2.7	significantly increased	significantly shorter	No differences	size of the wound vs placebo ([1]; two days post injury, per os): smaller; hair follicle length [5]: No differences; skin thickness [5]: did not change
COc1ccc(NC(=O)c2ccc(-c3ccc(-c4noc(C)n4)cc3C)cc2)cc1N1CCN(C)CC1 [GR127935]																					size of the wound (5HT1 BR; antagonist by osmotic pumps at 4 mg/kg concomitant with topical agonist CP 94253): 10.3±3.1; effect of the antagonist on the positive effects of the agonist (5HT1 BR; osmotic pumps at 4 mg/kg, concomitant with CP 94253): blocked partially
CCCOc1ccc2[nH]cc(C3=CCNCC3)c2n1 [CP 94253]																					size of the wound (5HT1 BR; topical 0.5 μmol once a day from 12 h after injury, no pretreatment): 7.7±2.5
